≈ marks a conversion by molar mass, not a printed value.

What all share (format): cell-based
For one assay, the system named is Saccharomyces sake. Briefly: Antifungal activity, agar dilution method. To be noted: potato agar, pH 6.4, 27° C., 4 days. The procedure:
(§1) Minimal inhibitory concentration is assayed by agar dilution method
(§2) (potato agar, pH 6.4, 27° C., 4 days)
For orientation: In agar dilution the substance is mixed into plates at graded concentrations.

The subject of a further assay is Microsporum gypseum. Briefly: Antifungal activity, agar dilution method. The following applies: potato agar, pH 6.4, 27° C., 4 days. How it is done:
as §1, §2

A further assay deals with Trichophyton asteroides. As to the kind of experiment: Antifungal activity, agar dilution method. To be noted: potato agar, pH 6.4, 27° C., 4 days. The procedure: as §1, §2
The subject of the next assay is Trichophyton ferrugineum. As to the kind of experiment: Antifungal activity, agar dilution method. The following applies: potato agar, pH 6.4, 27° C., 4 days. The procedure: as §1, §2
A further assay has as its system Candida albicans. Briefly: Antifungal activity, agar dilution method. The following applies: potato agar, pH 6.4, 27° C., 4 days. The procedure:
as §1, §2

In assay [1] the test system is Trichophyton interdigitale. Briefly: Antifungal activity, agar dilution method. To be noted: potato agar, pH 6.4, 27° C., 4 days. The procedure:
as §1, §2

In a further assay the test system is Aspergillus fumigatus. Briefly: Antifungal activity, agar dilution method. To be noted: potato agar, pH 6.4, 27° C., 4 days. How it is done:
as §1, §2

The test system of a further assay is Trichophyton rubrum. Briefly: Antifungal activity, agar dilution method. The following applies: potato agar, pH 6.4, 27° C., 4 days. How it is done:
as §1, §2

A further assay relates to Aspergillus niger. As to the kind of experiment: Antifungal activity, agar dilution method. To be noted: potato agar, pH 6.4, 27° C., 4 days. How it is done:
as §1, §2

The test system of a further assay is Trichophyton violaceum. As to the kind of experiment: Antifungal activity, agar dilution method. To be noted: potato agar, pH 6.4, 27° C., 4 days. How it is done:
as §1, §2

A further assay concerns Trichophyton schoenleini. As to the kind of experiment: Antifungal activity, agar dilution method. The following applies: potato agar, pH 6.4, 27° C., 4 days. How it is done: as §1, §2
A further assay concerns mycoplasma. As to the kind of experiment: Antimycoplasma activity, paper disc method. The following applies: Eiken PPLO agar, pH 7.8, 37° C., 1 day. How it is done:
Inhibitory zone is assayed by paper disc method (Eiken PPLO agar, pH 7.8,

Where [2] appears, read: Trichophyton, 96 h, read-out: Minimal Inhibitory Con.

As for `CCC[C@H]1O[C@H](CC(=O)O)CC2=C1C(=O)c1c(O)cccc1C2=O` [Deoxyfrenolicin, deoxyfrenolicin], the MIC in the assay with Saccharomyces sake (Saccharomyces, 96 h, read-out: Minimal Inhibitory Con.) was 6.3 µg/mL (≈ 19.1 µM); in the assay with Microsporum gypseum (Nannizzia gypsea, 96 h, read-out: Minimal Inhibitory Con.), below 0.2 µg/mL; with Trichophyton asteroides (setting [2]), below 0.2 µg/mL; in the assay with Trichophyton ferrugineum (Microsporum ferrugineum, 96 h, read-out: Minimal Inhibitory Con.) it was 3.1 µg/mL (≈ 9.38 µM); in the assay with Candida albicans (Candida albicans, 96 h, read-out: Minimal Inhibitory Con.), 50 µg/mL (≈ 151 µM); in assay [1] (Trichophyton interdigitale, 96 h, read-out: Minimal Inhibitory Con.), 0.4 µg/mL (≈ 1.21 µM). Further, the MIC with Aspergillus fumigatus (Aspergillus fumigatus, 96 h, read-out: Minimal Inhibitory Con.) is 6.3 µg/mL (≈ 19.1 µM); with Trichophyton rubrum (Trichophyton rubrum, 96 h, read-out: Minimal Inhibitory Con.) it was below 0.2 µg/mL; in the assay on Aspergillus niger (Aspergillus niger, 96 h, read-out: Minimal Inhibitory Con.) it was above 100 µg/mL; in the assay on Trichophyton violaceum (Trichophyton violaceum, 96 h, read-out: Minimal Inhibitory Con.), 0.8 µg/mL (≈ 2.42 µM); in the assay with Trichophyton schoenleini (setting [2]), below 0.2 µg/mL. The zone of inhibition at 10 µg/mL in the assay on mycoplasma (Mycoplasma, 24 h, 10 μg/ml, read-out: Inhibitory Zone) was determined as 14.6 mm. The zone of inhibition at 100 µg/mL in the assay on mycoplasma (Mycoplasma, 24 h, 100 μg/ml, read-out: Inhibitory Zone) amounted to 21.8 mm.
Regarding ethylkalafunginate, the “Minimal Inhibitory Con.” value (in the assay on Saccharomyces sake; in the assay with Microsporum gypseum; in the assay with Trichophyton asteroides; with Trichophyton ferrugineum; with Candida albicans; in assay [1]) was above 100 µg/mL each time. Also, the “Minimal Inhibitory Con.” value in the assay with Aspergillus fumigatus, in the assay on Trichophyton rubrum, with Aspergillus niger, with Trichophyton violaceum and in the assay with Trichophyton schoenleini was above 100 µg/mL throughout. Further, the “Inhibitory Zone” value in the assay with mycoplasma (10 μg/ml) and in the assay with mycoplasma (100 μg/ml) was “none” throughout.

The values above are taken from patent US4308210A, “Nanaomycin B and therapeutic compositions containing same” (The Kitasato Institute, priority 1976, dated 1981).
